Assay results: BindingDB's records for doi:10.1016/s0960-894x(99)00095-5 (Warner-Lambert, 1999)

Molecular target: Trypsin (Bos taurus)
Assay: In vitro for inhibition of purified bovine trypsin.

SMILES	IC50 [µM]
CN(c1nc2ccccc2c(=O)o1)S(=O)(=O)c1ccc(Cl)c(Cl)c1 [3,4-Dichloro-N-methyl-N-(4-oxo-4H-benzo[d][1,3]oxazin-2-yl)-benzenesulfonamide]	8.3
Cc1ccc(S(=O)(=O)N(C)c2nc3ccccc3c(=O)o2)cc1 [4,N-Dimethyl-N-(4-oxo-4H-benzo[d][1,3]oxazin-2-yl)-benzenesulfonamide]	4.5
CN(c1nc2ccccc2c(=O)o1)S(=O)(=O)c1ccc(Cl)cc1 [4-Chloro-N-methyl-N-(4-oxo-4H-benzo[d][1,3]oxazin-2-yl)-benzenesulfonamide]	1.3
COc1ccc(S(=O)(=O)N(C)c2nc3ccccc3c(=O)s2)cc1 [4-Methoxy-N-methyl-N-(4-oxo-4H-benzo[d][1,3]thiazin-2-yl)-benzenesulfonamide]	> 200

Next, values leading:

IC50 [µM]	SMILES
5.83	CN(c1nc2ccccc2c(=O)o1)S(=O)(=O)c1ccc(C(C)(C)C)cc1 [4-tert-Butyl-N-methyl-N-(4-oxo-4H-benzo[d][1,3]oxazin-2-yl)-benzenesulfonamide]
> 100	CN(c1nc2ccccc2c(=O)o1)S(=O)(=O)c1ccc([N+](=O)[O-])cc1 [N-Methyl-4-nitro-N-(4-oxo-4H-benzo[d][1,3]oxazin-2-yl)-benzenesulfonamide]
